Assays:
DENV = tested on: DENV; design: method as in PMID 23070155, PMID 23376501, PMID 22020302, PMID 22867971; conditions: post-exposure therapeutic administration; cited from earlier work
DENV2 strain 16681 = test: Infectious virus (plaque assay) and total virus (qRT-PCR for DENV RNA) secreted from infected MDMΦs; assay type: cell-based, dengue virus serotype 2; conditions: serial dilution, 48 h post-infection, normalized to untreated
Protocol: MDMΦ were infected with DENV2 16681 diluted to a multiplicity of infection (MOI) of 1 in X-VIVO10 without supplements for 90 minutes (20°C, with rocking). Upon removal of virus, fresh MDMΦ growth medium without IL-4 but containing serial dilutions of drug or control was placed on the cells, and cells were incubated for 48 hours (37°C, 5% CO2). For collection of infectious virus, supernatant was harvested and centrifuged for 5 minutes (room temperature, 400 x g) to pellet any cells/debris, and supernatants were aliquoted and stored at -80°C until analysis by plaque assay. […]
Virus titres for samples from human MDMΦ and C6/36 infections were obtained by LLC-MK2 plaque assays as per previous descriptions. […] A second-overlay containing nutrients, low-melting point tissue culture-grade agarose, and neutral red stain [33] was added and allowed to solidify at 20°C before further incubation for 1 day (37°C, 5% CO2) after which plaques were counted by eye. […]
DENV RNA in cell culture supernatants was isolated according to the manufacturer’s protocol for Direct-zol RNA MiniPrep Kit (Zymo Research) and assayed by reverse transcription-real time polymerase chain reaction (qRT-PCR) on an Applied Biosystems 7500 real-time PCR system (Life Technologies). […] Samples were read in technical duplicate and compared to a standard curve generated from high-titer viral RNA isolated from C6/36-grown DENV2. […]

ER α-glucosidase II = target: T1, ER α-glucosidase II (Homo sapiens, UniProt Q14697); test: Free oligosaccharide analysis in MDMΦs: Glc1Man4GlcNAc1; assay type: cell-based; conditions: 48 h; for accumulation of Glc1Man4GlcNAc1: 1 μM, MDMΦs, all donors; for FOS representative of ER α-glucosidase II inhibition (Glc1Man4GlcNAc1): MNTD of iminosugar (NB-DNJ 100 μM), uninfected MDMΦs
T1 construct: endogenous in cells; host or cells: primary human monocyte-derived macrophages (MDMΦ)
T1 sequence (Q14697 29-944): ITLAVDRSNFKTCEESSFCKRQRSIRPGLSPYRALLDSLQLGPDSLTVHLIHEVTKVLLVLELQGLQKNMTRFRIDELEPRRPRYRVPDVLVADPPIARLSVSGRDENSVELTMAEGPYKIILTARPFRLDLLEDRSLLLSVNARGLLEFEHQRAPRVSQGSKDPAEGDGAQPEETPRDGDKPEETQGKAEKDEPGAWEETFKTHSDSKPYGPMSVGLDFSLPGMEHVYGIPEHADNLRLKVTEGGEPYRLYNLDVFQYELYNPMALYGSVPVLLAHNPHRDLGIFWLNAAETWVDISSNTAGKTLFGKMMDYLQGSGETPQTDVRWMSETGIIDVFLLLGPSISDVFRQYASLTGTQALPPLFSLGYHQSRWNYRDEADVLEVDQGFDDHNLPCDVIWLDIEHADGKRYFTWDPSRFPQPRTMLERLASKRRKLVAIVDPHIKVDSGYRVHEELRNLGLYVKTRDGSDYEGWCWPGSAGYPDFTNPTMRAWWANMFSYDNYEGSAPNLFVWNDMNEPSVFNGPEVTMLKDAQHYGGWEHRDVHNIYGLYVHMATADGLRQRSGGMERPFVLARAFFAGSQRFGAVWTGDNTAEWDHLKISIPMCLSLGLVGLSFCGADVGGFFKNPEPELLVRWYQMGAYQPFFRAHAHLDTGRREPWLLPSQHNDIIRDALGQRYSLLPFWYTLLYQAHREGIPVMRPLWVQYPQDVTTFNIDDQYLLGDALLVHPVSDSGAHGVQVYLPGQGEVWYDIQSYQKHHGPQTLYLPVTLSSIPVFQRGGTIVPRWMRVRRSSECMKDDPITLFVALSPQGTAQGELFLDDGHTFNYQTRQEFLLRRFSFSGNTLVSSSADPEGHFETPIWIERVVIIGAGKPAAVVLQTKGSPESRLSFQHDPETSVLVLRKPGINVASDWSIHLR
T1 sequence (P14314 15-528 partner): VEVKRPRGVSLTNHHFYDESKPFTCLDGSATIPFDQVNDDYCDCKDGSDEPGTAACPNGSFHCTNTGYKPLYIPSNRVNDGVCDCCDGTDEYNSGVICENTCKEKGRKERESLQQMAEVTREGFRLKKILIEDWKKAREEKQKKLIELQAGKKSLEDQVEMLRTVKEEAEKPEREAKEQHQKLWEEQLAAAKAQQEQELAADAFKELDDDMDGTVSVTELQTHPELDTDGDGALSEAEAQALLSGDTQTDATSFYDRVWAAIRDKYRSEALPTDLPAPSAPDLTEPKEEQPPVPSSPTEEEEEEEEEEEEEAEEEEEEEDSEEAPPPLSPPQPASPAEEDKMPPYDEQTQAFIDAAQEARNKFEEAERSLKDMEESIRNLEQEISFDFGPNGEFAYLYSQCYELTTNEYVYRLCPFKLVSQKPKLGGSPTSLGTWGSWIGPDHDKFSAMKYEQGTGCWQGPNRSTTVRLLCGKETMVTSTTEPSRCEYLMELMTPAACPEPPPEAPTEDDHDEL

| Structure (SMILES) | protection in lethal mouse models of DENV infection (DENV) | infectious virus and total virus secreted (DENV2 strain 16681) | accumulation of Glc1Man4GlcNAc1 (ER α-glucosidase II) | FOS representative of ER α-glucosidase II inhibition (Glc1Man4GlcNAc1) (ER α-glucosidase II) |
| --- | --- | --- | --- | --- |
| CCCC(=O)O[C@H]1CN2CC[C@H](O)[C@@H]2[C@@H](O)[C@@H]1O [Celgosivir, 6-O-butanoyl-castanospermine] | protection in lethal mouse models | reduces infectious virus (solid lines) and total virus (dashed lines) secreted in a one-to-one ratio | led to accumulation of Glc1Man4GlcNAc1 |  |
| CCCCN1C[C@H](O)[C@@H](O)[C@@H](O)[C@H]1CO [NB-DGJ] |  |  |  | fail to produce detectable ER α-glucosidase associated FOS |
| CCCCN1C[C@H](O)[C@@H](O)[C@H](O)[C@H]1CO [NB-DNJ, N-butyl-DNJ] | protection in lethal mouse models | reduces infectious virus (solid lines) and total virus (dashed lines) secreted in a one-to-one ratio | led to accumulation of Glc1Man4GlcNAc1 | accumulation of peaks representative of inhibition of both α-glucosidases |
